Literature values as cited in article PMC9516332 (Frontiers in Oncology, 2022).
Where two headings read alike, the source gives them in different places.

Assays:
[1] = target: panel of 255 wild-type kinases (Homo sapiens, UniProt O75582); conditions: MSK1, 1 µmol/L single concentration, cited from earlier work
[2] = target: panel of 255 wild-type kinases (Homo sapiens, UniProt P09769); conditions: kinase FGR, 1 µmol/L single concentration, cited from earlier work
[3] = target: panel of 255 wild-type kinases (Homo sapiens, UniProt Q15119); conditions: kinase PDHK2, 1 µmol/L single concentration, cited from earlier work
[4] = target: panel of 255 wild-type kinases (Homo sapiens, UniProt Q15208); conditions: NDR1, 1 µmol/L single concentration, cited from earlier work
[5] = target: T1, panel of 255 wild-type kinases (Homo sapiens, UniProt Q16832); conditions: kinase DDR2, 1 µmol/L single concentration, cited from earlier work
T1 sequence (Q16832 22-855): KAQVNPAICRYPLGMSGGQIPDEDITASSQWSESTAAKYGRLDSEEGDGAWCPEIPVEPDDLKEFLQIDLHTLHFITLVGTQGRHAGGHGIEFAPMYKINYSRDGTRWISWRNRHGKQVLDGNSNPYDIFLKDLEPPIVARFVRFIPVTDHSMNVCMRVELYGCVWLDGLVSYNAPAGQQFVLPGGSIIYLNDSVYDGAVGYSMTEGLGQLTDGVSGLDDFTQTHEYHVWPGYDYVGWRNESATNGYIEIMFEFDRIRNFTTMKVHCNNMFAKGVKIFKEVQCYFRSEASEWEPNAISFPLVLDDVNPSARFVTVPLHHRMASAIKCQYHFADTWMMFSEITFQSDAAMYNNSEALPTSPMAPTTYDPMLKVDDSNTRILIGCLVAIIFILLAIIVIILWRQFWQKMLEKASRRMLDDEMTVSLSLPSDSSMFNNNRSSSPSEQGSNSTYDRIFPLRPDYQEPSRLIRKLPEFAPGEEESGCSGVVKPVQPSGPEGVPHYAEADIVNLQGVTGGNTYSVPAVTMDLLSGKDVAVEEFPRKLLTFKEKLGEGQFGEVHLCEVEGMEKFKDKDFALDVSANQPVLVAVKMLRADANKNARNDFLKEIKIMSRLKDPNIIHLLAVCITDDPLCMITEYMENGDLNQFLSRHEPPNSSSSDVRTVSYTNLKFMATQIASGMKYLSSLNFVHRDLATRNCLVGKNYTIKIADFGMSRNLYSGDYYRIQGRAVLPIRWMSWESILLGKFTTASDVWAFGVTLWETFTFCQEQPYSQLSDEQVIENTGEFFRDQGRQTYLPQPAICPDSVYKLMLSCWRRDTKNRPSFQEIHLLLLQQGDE

[6] = target: T2, panel of 255 wild-type kinases (Homo sapiens, UniProt Q96BR1); conditions: kinase SGK3, 1 µmol/L single concentration, cited from earlier work
T2 sequence (Q96BR1 1-496): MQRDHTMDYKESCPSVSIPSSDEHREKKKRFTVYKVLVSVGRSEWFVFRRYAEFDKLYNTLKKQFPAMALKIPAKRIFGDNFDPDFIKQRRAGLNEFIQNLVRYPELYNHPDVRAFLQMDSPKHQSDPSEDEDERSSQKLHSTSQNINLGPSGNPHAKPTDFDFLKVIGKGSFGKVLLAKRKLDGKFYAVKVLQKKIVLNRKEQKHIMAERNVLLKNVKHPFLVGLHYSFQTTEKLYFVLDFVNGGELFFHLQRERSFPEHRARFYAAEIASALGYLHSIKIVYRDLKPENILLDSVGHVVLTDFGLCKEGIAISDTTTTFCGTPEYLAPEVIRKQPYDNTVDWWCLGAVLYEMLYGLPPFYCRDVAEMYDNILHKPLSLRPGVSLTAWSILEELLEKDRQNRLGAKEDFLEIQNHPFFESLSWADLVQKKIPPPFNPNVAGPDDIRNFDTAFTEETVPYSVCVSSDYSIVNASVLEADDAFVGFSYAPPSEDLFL

[7] = target: panel of 255 wild-type kinases (Homo sapiens, UniProt Q9P1W9); conditions: kinase PIM2, 1 µmol/L single concentration, cited from earlier work
[8] = target: T3, panel of 255 wild-type kinases (Homo sapiens, UniProt Q9UHD2); conditions: kinase TBK1, 1 µmol/L single concentration, cited from earlier work
T3 sequence (Q9UHD2 1-729): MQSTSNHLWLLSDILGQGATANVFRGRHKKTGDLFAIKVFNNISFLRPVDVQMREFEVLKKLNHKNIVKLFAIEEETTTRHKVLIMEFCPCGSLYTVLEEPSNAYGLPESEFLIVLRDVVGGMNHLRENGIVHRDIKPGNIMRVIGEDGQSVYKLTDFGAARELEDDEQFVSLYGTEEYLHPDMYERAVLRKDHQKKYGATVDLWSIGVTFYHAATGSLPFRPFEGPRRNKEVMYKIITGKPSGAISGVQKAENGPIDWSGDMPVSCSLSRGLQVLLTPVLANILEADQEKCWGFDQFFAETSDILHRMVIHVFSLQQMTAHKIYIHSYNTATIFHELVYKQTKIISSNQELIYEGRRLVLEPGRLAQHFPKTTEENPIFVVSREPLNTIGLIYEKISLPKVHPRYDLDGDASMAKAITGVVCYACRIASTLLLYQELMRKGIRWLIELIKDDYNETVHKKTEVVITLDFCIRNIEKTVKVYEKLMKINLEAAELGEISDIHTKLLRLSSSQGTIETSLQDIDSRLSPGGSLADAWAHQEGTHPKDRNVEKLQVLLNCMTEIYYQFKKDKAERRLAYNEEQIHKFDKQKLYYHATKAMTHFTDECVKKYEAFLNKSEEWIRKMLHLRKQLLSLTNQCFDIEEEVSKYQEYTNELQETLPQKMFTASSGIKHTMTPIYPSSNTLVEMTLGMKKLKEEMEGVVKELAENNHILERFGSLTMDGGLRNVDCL

[9] = target: panel of 255 wild-type kinases (Homo sapiens, UniProt Q9Y3S1); conditions: kinase WNK2, 1 µmol/L single concentration, cited from earlier work
[10] = ref DOI: 10.1158/1535-7163.MCT-18-0877
[11] = ref DOI: 10.1371/journal.pone.0092146

Row | Structure (SMILES) | %-inhibition, MSK1 [1, 10] | %-inhibition at 1 µmol/L, FGR [2, 10] | %-inhibition at 1 µmol/L, PDHK2 [3, 10] | %-inhibition, NDR1 [4, 10] | %-inhibition at 1 µmol/L, DDR2 [5, 10] | %-inhibition at 1 µmol/L, SGK3 [6, 10] | %-inhibition at 1 µmol/L, PIM2 [7, 10] | %-inhibition at 1 µmol/L, TBK1 [8, 10] | %-inhibition at 1 µmol/L, WNK2 [9, 10] | %-inhibition, MSK1 [1, 11] | %-inhibition at 1 µmol/L, FGR [2, 11] | %-inhibition at 1 µmol/L, PDHK2 [3, 11] | %-inhibition, NDR1 [4, 11] | %-inhibition at 1 µmol/L, DDR2 [5, 11] | %-inhibition at 1 µmol/L, SGK3 [6, 11] | %-inhibition at 1 µmol/L, PIM2 [7, 11] | %-inhibition at 1 µmol/L, TBK1 [8, 11] | %-inhibition at 1 µmol/L, WNK2 [9, 11]
1 | CO[C@@H]1[C@H](N(C)C(=O)c2ccccc2)C[C@H]2O[C@]1(C)n1c3ccccc3c3c4c(c5c6ccccc6n2c5c31)C(=O)NC4 [midostaurin] | 88% | 93% | -1.18% | 31% | 97% | 16% | -9% | 98% | 0.935% |  |  |  |  |  |  |  |  | 
2 | C=CC(=O)Nc1cc(Nc2nccc(-c3cn(C)c4ccccc34)n2)c(OC)cc1N(C)CCN(C)C [osimertinib] | -0.561% | 5.61% | -2% | 13% | 25% | 3.6% | -5.45% | 9% | 4.6% |  |  |  |  |  |  |  |  | 
3 | CC(=O)Nc1cccc(-n2c(=O)n(C3CC3)c(=O)c3c(Nc4ccc(I)cc4F)n(C)c(=O)c(C)c32)c1 [trametinib] |  |  |  |  |  |  |  |  |  | -0.531% | -9% | -0.542% | -1.68% | 0.612% | 0.769% | -4% | -4.47% | 1.45%
4 | CCCS(=O)(=O)Nc1ccc(F)c(C(=O)c2c[nH]c3ncc(-c4ccc(Cl)cc4)cc23)c1F [vemurafenib] |  |  |  |  |  |  |  |  |  | 0.256% | 93% | 3.73% | -3.81% | 69% | -2.38% | -2% | -0.81% | 13%
